In series [1] the test system is HCV replicon (5-2 Luc replicon-comprising cells). Nature of the series: HCV replicon assay (luciferase reporter). The settings on record: read-out: Replicon (IC50, 50% reduction in luciferase emission). In kind it is cell-based, Hepatitis C virus. The procedure: The inhibitory activity of certain exemplary compounds of the invention was confirmed using an HCV replicon assay. The HCV replicon can include such features as the HCV IRES, the HCV 3′ untranslated region, selected HCV genes encoding HCV polypeptides, selectable markers, and a reporter gene such as luciferase, GEP, etc. In the assay, actively dividing 5-2 Luc replicon-comprising cells were seeded at a density of between about 5,000 and 7,500 cells/well onto 96 well plates (about 90 μl of cells per well) and incubated at 37° C. and 5% CO2 for 24 hours. Then, the test compound (in a volume of about 10 μl) was added at various concentrations to each well and the cells were incubated for an additional 24 hours before luciferase assay. The cells were harvested, and HCV replication or translation was monitored via a reporter assay, e.g., a luciferase reporter assay. The media was aspirated from each cell and Bright-Glo ([…].) luciferase assay reagents were added to each well according to the manufacturer's instructions. In this assay, the amount of test compound that yielded a 50% reduction in luciferase emission (IC50) was determined.
In general terms: In antiviral work, replicon cells carry a viral genome segment that copies itself.

Series [2] relates to HCV proteins (HCV replication). Nature of the series: quantitative Western blot analysis with antibodies specific for certain HCV proteins. The conditions noted are these: read-out: Western (IC50, 50% reduction in the amount of the specified HCV protein). It counts as cell-based, Hepatitis C virus. The method, then:
Certain exemplary compounds of the invention were also tested for their ability to inhibit HCV replication using a quantitative Western blot analysis with antibodies specific for certain HCV proteins. In this assay, the amount of test compound that yielded a 50% reduction in the amount of the specified HCV protein as compared to a control sample (IC50) was determined.
Background: Immunoblotting shows a protein as a band on a membrane.

Series [3] is described as follows: cytotoxicity assay (Cell Titer Glo). The settings on record: human; 48 hr with compound, ATP-dependent Cell Titer Glo; read-out: IC50 (cytotoxicity, number of viable cells). In kind it is cell-based. The procedure:
Compounds 1, 3, 7, 9, 11, 13, 17, 19, 21, 27, 29, 31, 33, 35, 37, 39, 47, 49, 51, 57 and 69 were tested in a cytotoxicity assay with liver cells including an HCV replicon (5-2 Luc cells, 9-13 cells or Huh-7 cells). In the assay, cells were seeded onto 96-well plates (approx. 7500 cells/well in a volume of 90 μl) and grown for 24 hr at 37° C. On day 2, various concentrations of test compound (in a volume of 10 μl) were added to the wells and the cells were grown for an additional 48 hr at 37° C. On day 4, an ATP-dependent R-Luciferase assay (Cell Titer Glo assay) was performed to determine the number of viable cells.
In general terms: Cellular ATP, detected with luciferase, serves as a proxy for viable cell number.

The mark [4] stands for this setting: Hepatitis C virus, first symbol of the Replicon/Western cell, 5-2 Luc replicon cells, 24 hours with compound.
[5] abbreviates: Hepatitis C virus, second symbol of the Replicon/Western cell.

Like-named read-outs stand apart in the source and are kept apart here.

12 compounds from US7332602B2, “Pyridyl substituted heterocycles useful for treating or preventing HCV infection” (Rigel Pharmaceuticals, Inc., priority 2002, dated 2008) can be followed below.

In general, IC50 refers to the midpoint of a concentration-inhibition curve. Consider `O=C(Nc1ccnc(-c2cc(-c3c(F)cccc3C(F)(F)F)no2)c1)C(Cl)Cl` [Compound 3, 2,2-Dichloro-N-[2-[3-(2-fluoro-6-trifluoromethylphenyl)-5-isoxazolyl]-(4-pyridyl)] Acetamide], for which the IC50 in series [1] (setting [4]) and in series [2] (setting [5]) was less than 10 µM throughout. The 50% inhibitory concentration (IC50) at 48 h in series [3] was no less than 10 µM.
For `O=C(Nc1cncc(-c2cc(-c3c(Cl)cccc3Cl)no2)c1)C(Cl)Cl` [Compound 7, 2,2-Dichloro-N-[5-[3-(2,6-dichlorophenyl)-5-isoxazolyl]-(3-pyridyl)] Acetamide], the half-maximal inhibitory concentration (IC50) in series [1] (setting [4]) and in series [2] (setting [5]) was less than 10 µM throughout. For the same compound, the IC50 at 48 h in series [3] is no less than 10 µM.
For `O=C(Nc1cccc(-c2cc(-c3cc(Cl)nc(Cl)c3)no2)c1)C(Cl)Cl` [Compound 11, 2,2-Dichloro-N-[3-[3-[(2,6-dichloro)-4-pyridyl]-5-isoxazolyl]phenyl] Acetamide], the IC50 was greater than 10 µM in series [1] (first symbol of the Replicon/Western cell, 5-2 Luc replicon cells, 24 hours with compound) and less than 10 µM in series [2] (second symbol of the Replicon/Western cell).
On to `O=C(Nc1cncc(-c2cc(-c3c(F)cccc3Cl)no2)c1)C(Cl)Cl` [Compound 13, 2,2-Dichloro-N-[5-[3-(2-chloro-6-fluorophenyl)-5-isoxazolyl]-(3-pyridyl)] Acetamide], for which the IC50 in series [1] (setting [4]) and in series [2] (setting [5]) was less than 10 µM in each case. Besides, in series [3], the IC50 at 48 h turned out to be 3 µM.
In the case of `Cc1cccc(C)c1-c1cc(-c2cncc(NC(=O)C(Cl)Cl)c2)on1` [Compound 21, 2,2-Dichloro-N-[5-[3-(2,6-dimethylphenyl)-5-isoxazolyl]-(3-pyridyl)] Acetamide], the IC50 in series [1] (setting [4]) is less than 10 µM; in series [2] (setting [5]), greater than 10 µM. Also, the IC50 at 48 h in series [3] is no less than 10 µM.
With `O=C(Nc1cncc(-c2cc(-c3c(F)cccc3F)no2)c1)C(Cl)Cl` [Compound 27, 2,2-Dichloro-N-[5-[3-(2,6-difluorophenyl)-5-isoxazolyl]-(3-pyridyl)] Acetamide], the IC50 in series [1] (setting [4]) and in series [2] (setting [5]) was less than 10 µM in each case. In addition, the IC50 at 48 h in series [3] is no less than 10 µM.
Consider `O=C(Nc1ccnc(-c2cc(-c3c(Cl)cccc3N3CCN(c4ccccn4)CC3)no2)c1)C(Cl)Cl` [Compound 53], for which the IC50 in series [1] (setting [4]) and in series [2] (setting [5]) was less than 10 µM each time.
As for `O=C(Nc1ccnc(-c2cc(-c3c(Cl)cccc3Cl)no2)c1)C(Cl)Cl` [Compound 9, 2,2-Dichloro-N-[2-[3-(2,6-dichlorophenyl)-5-isoxazolyl]-(4-pyridyl)] Acetamide], the IC50 in series [1] (Hepatitis C virus, 24 h) is less than 10 µM; in series [2] (Hepatitis C virus), less than 10 µM. Besides, the IC50 at 48 h in series [3] is no less than 10 µM.
With `COc1cccc(C(F)(F)F)c1-c1cc(-c2cc(NC(=O)C(Cl)Cl)ccn2)on1` [Compound 49, 2,2-Dichloro-N-[2-[3-(2-methoxy-6-trifluoromethylphenyl)-5-isoxazolyl]-(4-pyridyl)] Acetamide], the IC50 in series [1] (setting [4]) and in series [2] (setting [5]) was less than 10 µM in each case. Moreover, the IC50 at 48 h in series [3] is no less than 10 µM.
Consider `COc1cccc(F)c1-c1cc(-c2cc(NC(=O)C(Cl)Cl)ccn2)on1` [Compound 5, 2,2-Dichloro-N-[2-[3-(2-fluoro-6-methoxyphenyl)-5-isoxazolyl]-(4-pyridyl)] Acetamide], for which the IC50 in series [1] (setting [4]) was greater than 10 µM; in series [2] (setting [5]), less than 10 µM.
As for `COc1cccc(F)c1-c1cc(-c2cncc(NC(=O)C(Cl)Cl)c2)on1` [Compound 17, 272-Dichloro-N-[5-[3-(2-fluoro-6-methoxyphenyl)-5-isoxazolyl]-(3-pyridyl)] Acetamide], the IC50 in series [1] (setting [4]) and in series [2] (setting [5]) was less than 10 µM throughout. Besides, in series [3], the IC50 at 48 h is no less than 10 µM.
As to `COc1cccc(C(F)(F)F)c1-c1cc(-c2cncc(NC(=O)C(Cl)Cl)c2)on1` [Compound 57, 2,2-Dichloro-N-[5-[3-(2-methoxy-6-trifluoromethylphenyl)-5-isoxazolyl]-(3-pyridyl)] Acetamide], the IC50 in series [1] (setting [4]) and in series [2] (setting [5]) was less than 10 µM each time. The half-inhibitory concentration (IC50) at 48 h in series [3] is greater than 5 µM.
